Peptide text beside a SMILES is read from it.
How the values were obtained:
HLA A*0101 = biological target: T1, HLA A*0101 (Homo sapiens, UniProt P04439, A114D/A174V/A182V/D101N/D185E/E176A/E190D/L180R/Q94H/R68K/S129P/T187R/V100A/V91M/W191G); assay: biochemical; type: binding; conditions: allele A0101; cell-free competition with fluorescently labeled control peptide, fluorescence polarization at 72 hours; read-out: IC50
T1 construct: Pure Protein, LLC (ran the assay)

[1] = system: CD4 T cells co-cultured with autologous DCs from PBMCs; type: cell-based, human; conditions: for Percentage of donors demonstrating IFN-γ responses, DR1 / Percentage of donors demonstrating IL-2 responses, DR1 / Percentage of donors demonstrating IL-4 responses, DR1 / Percentage of donors demonstrating IL-10 responses, DR1 / Percentage of donors demonstrating TNF-α responses, DR1: DR1 donors N=5; for Percentage of donors demonstrating IFN-γ responses, DR1 / Percentage of donors demonstrating IL-2 responses, DR1 / Percentage of donors demonstrating IL-4 responses, DR1 / Percentage of donors demonstrating IL-10 responses, DR1 / Percentage of donors demonstrating TNF-α responses, DR1 / Percentage of donors demonstrating IFN-γ responses, DR3 / Percentage of donors demonstrating IL-2 responses, DR3 / Percentage of donors demonstrating IL-4 responses, DR3 / Percentage of donors demonstrating IL-10 responses, DR3 / Percentage of donors demonstrating TNF-α responses, DR3 / Percentage of donors demonstrating IFN-γ responses, DR4 / Percentage of donors demonstrating IL-2 responses, DR4 / Percentage of donors demonstrating IL-4 responses, DR4 / Percentage of donors demonstrating IL-10 responses, DR4 / Percentage of donors demonstrating TNF-α responses, DR4 / Percentage of donors demonstrating IFN-γ responses, DR7 / Percentage of donors demonstrating IL-2 responses, DR7 / Percentage of donors demonstrating IL-4 responses, DR7 / Percentage of donors demonstrating IL-10 responses, DR7 / Percentage of donors demonstrating TNF-α responses, DR7 / Percentage of donors demonstrating IFN-γ responses, DR8 / Percentage of donors demonstrating IL-2 responses, DR8 / Percentage of donors demonstrating IL-4 responses, DR8 / Percentage of donors demonstrating IL-10 responses, DR8 / Percentage of donors demonstrating TNF-α responses, DR8 / Percentage of donors demonstrating IFN-γ responses, DR9 / Percentage of donors demonstrating IL-2 responses, DR9 / Percentage of donors demonstrating IL-4 responses, DR9 / Percentage of donors demonstrating IL-10 responses, DR9 / Percentage of donors demonstrating TNF-α responses, DR9 / Percentage of donors demonstrating IFN-γ responses, DR11 / Percentage of donors demonstrating IL-2 responses, DR11 / Percentage of donors demonstrating IL-4 responses, DR11 / Percentage of donors demonstrating IL-10 responses, DR11 / Percentage of donors demonstrating TNF-α responses, DR11 / Percentage of donors demonstrating IFN-γ responses, DR13 / Percentage of donors demonstrating IL-2 responses, DR13 / Percentage of donors demonstrating IL-4 responses, DR13 / Percentage of donors demonstrating IL-10 responses, DR13 / Percentage of donors demonstrating TNF-α responses, DR13 / Percentage of donors demonstrating IFN-γ responses, DR15 / Percentage of donors demonstrating IL-2 responses, DR15 / Percentage of donors demonstrating IL-4 responses, DR15 / Percentage of donors demonstrating IL-10 responses, DR15 / Percentage of donors demonstrating TNF-α responses, DR15: positive = Stimulation Index ≥1.5-fold above baseline, 5 µg/mL peptide; for Percentage of donors demonstrating IFN-γ responses, DR1 / Percentage of donors demonstrating IFN-γ responses, DR3 / Percentage of donors demonstrating IFN-γ responses, DR4 / Percentage of donors demonstrating IFN-γ responses, DR7 / Percentage of donors demonstrating IFN-γ responses, DR8 / Percentage of donors demonstrating IFN-γ responses, DR9 / Percentage of donors demonstrating IFN-γ responses, DR11 / Percentage of donors demonstrating IFN-γ responses, DR13 / Percentage of donors demonstrating IFN-γ responses, DR15: ICCS after 14-day co-culture; for Percentage of donors demonstrating IL-2 responses, DR1 / Percentage of donors demonstrating IL-4 responses, DR1 / Percentage of donors demonstrating IL-10 responses, DR1 / Percentage of donors demonstrating TNF-α responses, DR1 / Percentage of donors demonstrating IL-2 responses, DR3 / Percentage of donors demonstrating IL-4 responses, DR3 / Percentage of donors demonstrating IL-10 responses, DR3 / Percentage of donors demonstrating TNF-α responses, DR3 / Percentage of donors demonstrating IL-2 responses, DR4 / Percentage of donors demonstrating IL-4 responses, DR4 / Percentage of donors demonstrating IL-10 responses, DR4 / Percentage of donors demonstrating TNF-α responses, DR4 / Percentage of donors demonstrating IL-2 responses, DR7 / Percentage of donors demonstrating IL-4 responses, DR7 / Percentage of donors demonstrating IL-10 responses, DR7 / Percentage of donors demonstrating TNF-α responses, DR7 / Percentage of donors demonstrating IL-2 responses, DR8 / Percentage of donors demonstrating IL-4 responses, DR8 / Percentage of donors demonstrating IL-10 responses, DR8 / Percentage of donors demonstrating TNF-α responses, DR8 / Percentage of donors demonstrating IL-2 responses, DR9 / Percentage of donors demonstrating IL-4 responses, DR9 / Percentage of donors demonstrating IL-10 responses, DR9 / Percentage of donors demonstrating TNF-α responses, DR9 / Percentage of donors demonstrating IL-2 responses, DR11 / Percentage of donors demonstrating IL-4 responses, DR11 / Percentage of donors demonstrating IL-10 responses, DR11 / Percentage of donors demonstrating TNF-α responses, DR11 / Percentage of donors demonstrating IL-2 responses, DR13 / Percentage of donors demonstrating IL-4 responses, DR13 / Percentage of donors demonstrating IL-10 responses, DR13 / Percentage of donors demonstrating TNF-α responses, DR13 / Percentage of donors demonstrating IL-2 responses, DR15 / Percentage of donors demonstrating IL-4 responses, DR15 / Percentage of donors demonstrating IL-10 responses, DR15 / Percentage of donors demonstrating TNF-α responses, DR15: ICCS; for Percentage of donors demonstrating IFN-γ responses, DR3 / Percentage of donors demonstrating IL-2 responses, DR3 / Percentage of donors demonstrating IL-4 responses, DR3 / Percentage of donors demonstrating IL-10 responses, DR3 / Percentage of donors demonstrating TNF-α responses, DR3: DR3 donors N=6; for Percentage of donors demonstrating IFN-γ responses, DR4 / Percentage of donors demonstrating IL-2 responses, DR4 / Percentage of donors demonstrating IL-4 responses, DR4 / Percentage of donors demonstrating IL-10 responses, DR4 / Percentage of donors demonstrating TNF-α responses, DR4: DR4 donors N=10; for Percentage of donors demonstrating IFN-γ responses, DR7 / Percentage of donors demonstrating IL-2 responses, DR7 / Percentage of donors demonstrating IL-4 responses, DR7 / Percentage of donors demonstrating IL-10 responses, DR7 / Percentage of donors demonstrating TNF-α responses, DR7: DR7 donors N=4; for Percentage of donors demonstrating IFN-γ responses, DR8 / Percentage of donors demonstrating IL-2 responses, DR8 / Percentage of donors demonstrating IL-4 responses, DR8 / Percentage of donors demonstrating IL-10 responses, DR8 / Percentage of donors demonstrating TNF-α responses, DR8: DR8 donors N=4; for Percentage of donors demonstrating IFN-γ responses, DR9 / Percentage of donors demonstrating IL-2 responses, DR9 / Percentage of donors demonstrating IL-4 responses, DR9 / Percentage of donors demonstrating IL-10 responses, DR9 / Percentage of donors demonstrating TNF-α responses, DR9: DR9 donors N=4; for Percentage of donors demonstrating IFN-γ responses, DR11 / Percentage of donors demonstrating IL-2 responses, DR11 / Percentage of donors demonstrating IL-4 responses, DR11 / Percentage of donors demonstrating IL-10 responses, DR11 / Percentage of donors demonstrating TNF-α responses, DR11: DR11 donors N=4; for Percentage of donors demonstrating IFN-γ responses, DR13 / Percentage of donors demonstrating IL-2 responses, DR13 / Percentage of donors demonstrating IL-4 responses, DR13 / Percentage of donors demonstrating IL-10 responses, DR13 / Percentage of donors demonstrating TNF-α responses, DR13: DR13 donors N=7; for Percentage of donors demonstrating IFN-γ responses, DR15 / Percentage of donors demonstrating IL-2 responses, DR15 / Percentage of donors demonstrating IL-4 responses, DR15 / Percentage of donors demonstrating IL-10 responses, DR15 / Percentage of donors demonstrating TNF-α responses, DR15: DR15 donors N=7

CC(C)[C@H](NC(=O)[C@H](CO)NC(=O)[C@H](CO)NC(=O)[C@@H](N)CS)C(=O)N[C@@H](Cc1ccccc1)C(=O)N[C@@H](CC(N)=O)C(=O)N[C@H](C(=O)N[C@H](C(=O)N[C@@H](CC(N)=O)C(=O)O)C(C)C)C(C)C [Cluster 374_3D7] (H-CSSVFNVVN-OH)
82.5 µM: IC50 (HLA A*0101)

DQHIEQYLKTIQNSLSTEWS [ICS4]
29%: Percentage of donors demonstrating IFN-γ responses, DR15 [1] | Percentage of donors demonstrating TNF-α responses, DR15 [1]
30%: Percentage of donors demonstrating IFN-γ responses, DR4 [1] | Percentage of donors demonstrating TNF-α responses, DR4 [1]
0%: Percentage of donors demonstrating IFN-γ responses, DR1 [1] | Percentage of donors demonstrating IL-4 responses, DR1 [1] | Percentage of donors demonstrating IL-10 responses, DR1 [1] | Percentage of donors demonstrating TNF-α responses, DR1 [1] | Percentage of donors demonstrating IFN-γ responses, DR3 [1] | Percentage of donors demonstrating IL-2 responses, DR3 [1] | Percentage of donors demonstrating IL-10 responses, DR3 [1] | Percentage of donors demonstrating TNF-α responses, DR3 [1] | Percentage of donors demonstrating IL-4 responses, DR4 [1] | Percentage of donors demonstrating IFN-γ responses, DR7 [1] | Percentage of donors demonstrating IL-2 responses, DR7 [1] | Percentage of donors demonstrating IL-4 responses, DR7 [1] | Percentage of donors demonstrating IL-10 responses, DR7 [1] | Percentage of donors demonstrating TNF-α responses, DR7 [1] | Percentage of donors demonstrating IFN-γ responses, DR8 [1] | Percentage of donors demonstrating IL-2 responses, DR8 [1] | Percentage of donors demonstrating IL-4 responses, DR8 [1] | Percentage of donors demonstrating IL-10 responses, DR8 [1] | Percentage of donors demonstrating TNF-α responses, DR8 [1] | Percentage of donors demonstrating IFN-γ responses, DR9 [1] | Percentage of donors demonstrating IL-2 responses, DR9 [1] | Percentage of donors demonstrating IL-4 responses, DR9 [1] | Percentage of donors demonstrating IL-10 responses, DR9 [1] | Percentage of donors demonstrating TNF-α responses, DR9 [1] | Percentage of donors demonstrating IFN-γ responses, DR11 [1] | Percentage of donors demonstrating IL-4 responses, DR11 [1] | Percentage of donors demonstrating IL-10 responses, DR11 [1] | Percentage of donors demonstrating TNF-α responses, DR11 [1] | Percentage of donors demonstrating IFN-γ responses, DR13 [1] | Percentage of donors demonstrating IL-2 responses, DR13 [1] | Percentage of donors demonstrating IL-10 responses, DR13 [1] | Percentage of donors demonstrating TNF-α responses, DR13 [1] | Percentage of donors demonstrating IL-4 responses, DR15 [1] | Percentage of donors demonstrating IL-10 responses, DR15 [1]
25%: Percentage of donors demonstrating IL-2 responses, DR11 [1]
20%: Percentage of donors demonstrating IL-2 responses, DR1 [1] | Percentage of donors demonstrating IL-2 responses, DR4 [1]
10%: Percentage of donors demonstrating IL-10 responses, DR4 [1]
14%: Percentage of donors demonstrating IL-4 responses, DR13 [1] | Percentage of donors demonstrating IL-2 responses, DR15 [1]
0.74: median SI, IFN-γ recall responses ([1]; median stimulation index across donors, response with peptide divided by response with no peptide)
17%: Percentage of donors demonstrating IL-4 responses, DR3 [1]

IKKYLKKIKNSISTEWSPCS [ICS6]
14%: Percentage of donors demonstrating IL-4 responses, DR15 [1]
29%: Percentage of donors demonstrating IL-2 responses, DR13 [1] | Percentage of donors demonstrating IL-2 responses, DR15 [1]
43%: Percentage of donors demonstrating IFN-γ responses, DR13 [1] | Percentage of donors demonstrating TNF-α responses, DR13 [1] | Percentage of donors demonstrating IFN-γ responses, DR15 [1] | Percentage of donors demonstrating IL-10 responses, DR15 [1] | Percentage of donors demonstrating TNF-α responses, DR15 [1]
17%: Percentage of donors demonstrating IL-10 responses, DR3 [1]
50%: Percentage of donors demonstrating IFN-γ responses, DR3 [1] | Percentage of donors demonstrating IFN-γ responses, DR7 [1] | Percentage of donors demonstrating IL-2 responses, DR7 [1] | Percentage of donors demonstrating IL-10 responses, DR7 [1] | Percentage of donors demonstrating IFN-γ responses, DR9 [1] | Percentage of donors demonstrating IL-2 responses, DR9 [1] | Percentage of donors demonstrating TNF-α responses, DR9 [1] | Percentage of donors demonstrating IFN-γ responses, DR11 [1] | Percentage of donors demonstrating TNF-α responses, DR11 [1]
20%: Percentage of donors demonstrating IFN-γ responses, DR1 [1] | Percentage of donors demonstrating IL-2 responses, DR1 [1] | Percentage of donors demonstrating IL-10 responses, DR1 [1] | Percentage of donors demonstrating TNF-α responses, DR1 [1]
30%: Percentage of donors demonstrating IL-2 responses, DR4 [1] | Percentage of donors demonstrating IL-10 responses, DR4 [1] | Percentage of donors demonstrating TNF-α responses, DR4 [1]
25%: Percentage of donors demonstrating TNF-α responses, DR7 [1] | Percentage of donors demonstrating IFN-γ responses, DR8 [1] | Percentage of donors demonstrating IL-4 responses, DR9 [1] | Percentage of donors demonstrating IL-10 responses, DR9 [1] | Percentage of donors demonstrating IL-2 responses, DR11 [1] | Percentage of donors demonstrating IL-10 responses, DR11 [1]
33%: Percentage of donors demonstrating IL-2 responses, DR3 [1] | Percentage of donors demonstrating TNF-α responses, DR3 [1]
40%: Percentage of donors demonstrating IFN-γ responses, DR4 [1]
0%: Percentage of donors demonstrating IL-4 responses, DR1 [1] | Percentage of donors demonstrating IL-4 responses, DR3 [1] | Percentage of donors demonstrating IL-4 responses, DR4 [1] | Percentage of donors demonstrating IL-4 responses, DR7 [1] | Percentage of donors demonstrating IL-2 responses, DR8 [1] | Percentage of donors demonstrating IL-4 responses, DR8 [1] | Percentage of donors demonstrating IL-10 responses, DR8 [1] | Percentage of donors demonstrating TNF-α responses, DR8 [1] | Percentage of donors demonstrating IL-4 responses, DR11 [1] | Percentage of donors demonstrating IL-4 responses, DR13 [1] | Percentage of donors demonstrating IL-10 responses, DR13 [1]
